According to the Kinase Knowledgebase extract (Sharma et al. 2016):

target: MAPK14 (human) (UniProt Q16539); experiment: Inhibition of MAPK14 Kinase Activity
Sequence (Q16539 whole entry, looked up): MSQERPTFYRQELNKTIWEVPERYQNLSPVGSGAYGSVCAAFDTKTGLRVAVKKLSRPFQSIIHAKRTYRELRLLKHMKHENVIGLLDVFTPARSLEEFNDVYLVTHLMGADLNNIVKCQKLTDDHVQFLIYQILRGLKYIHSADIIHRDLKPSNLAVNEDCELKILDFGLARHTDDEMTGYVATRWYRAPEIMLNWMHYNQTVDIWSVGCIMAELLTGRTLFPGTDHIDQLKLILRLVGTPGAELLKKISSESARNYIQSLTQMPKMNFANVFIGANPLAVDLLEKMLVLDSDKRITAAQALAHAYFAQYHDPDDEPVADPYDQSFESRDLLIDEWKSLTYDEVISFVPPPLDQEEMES

SMILES | IC50 [µM]
O=c1ccc2c(-c3ccccc3Cl)nc(OCCO)nc2n1-c1ccccc1Cl | < 10
Nc1nc(-c2ccccc2F)c2ccc(=O)n(-c3c(F)cccc3F)c2n1 | < 10
CCN(CC)CCNc1nc(-c2ccccc2Cl)c2ccc(=O)n(-c3ccccc3Cl)c2n1 | < 10
Cc1cc(F)ccc1-c1nc(NCCCl)nc2c1ccc(=O)n2-c1c(F)cccc1F | < 10
Cc1cc(F)ccc1-c1nc(NCc2nnn[nH]2)nc2c1ccc(=O)n2-c1c(F)cccc1F | < 10
Cc1cc(F)ccc1-c1nc(OCC(CO)CO)nc2c1ccc(=O)n2-c1c(F)cccc1F | < 10
Cc1cc(F)ccc1-c1nc(NCCCS(C)(=O)=O)nc2c1ccc(=O)n2-c1c(F)cccc1F | < 10
Cc1cc(F)ccc1-c1nc(NC[C@H](C)O)nc2c1ccc(=O)n2C1CCCCC1 | < 10
CCNC(=O)NCCNc1nc(-c2ccc(F)cc2C)c2ccc(=O)n(-c3c(F)cccc3F)c2n1 | < 10
Cc1cc(F)ccc1-c1nc(OCCNS(C)(=O)=O)nc2c1ccc(=O)n2-c1c(F)cccc1F | < 10
CS(=O)(=O)c1nc(-c2ccccc2Cl)c2ccc(=O)n(-c3ccccc3Cl)c2n1 | < 10
Cc1cc(F)ccc1-c1nc(OCCN)nc2c1ccc(=O)n2-c1c(F)cccc1F | < 10
CS(=O)(=O)Nc1nc(-c2ccccc2)c2ccc(=O)n(-c3ccccc3)c2n1 | < 10
Cc1cc(F)ccc1-c1nc(NCCNC(=O)OC(C)(C)C)nc2c1ccc(=O)n2-c1c(F)cccc1F | < 10
Cc1cc(F)ccc1-c1nc(N(C)CCO)nc2c1ccc(=O)n2-c1c(F)cccc1F | < 10
CCC(CC)n1c(=O)ccc2c(-c3ccccc3Cl)nc(NC3CCN(C)CC3)nc21 | < 10
CCOc1nc(-c2ccc(F)cc2C)c2ccc(=O)n(C3CCCCC3)c2n1 | < 10
CCC(=O)NCCNc1nc(-c2ccc(F)cc2C)c2ccc(=O)n(-c3c(F)cccc3F)c2n1 | < 10
Cc1cc(F)ccc1-c1nc(NCCO)nc2c1ccc(=O)n2C(C)C | < 10

SMILES | IC50 [µM]
Cc1cc(F)ccc1-c1nc(OCCCS(C)(=O)=O)nc2c1ccc(=O)n2-c1c(F)cccc1F | < 10
CSc1nc(-c2ccccc2F)c2ccc(=O)n(-c3ccccc3F)c2n1 | < 10
CSc1nc(-c2ccccc2Cl)c2ccc(=O)n(-c3ccccc3Cl)c2n1 | < 10
CCN(CC)CCNc1nc(-c2ccccc2F)c2ccc(=O)n(-c3ccccc3Cl)c2n1 | < 10
Cc1cc(F)ccc1-c1nc(NCCNC(=O)CN)nc2c1ccc(=O)n2-c1c(F)cccc1F | < 10
CSc1nc(NC2CCCCC2)c(C=O)c(-c2ccc(F)cc2C)n1 | < 10
CN(C)CCNc1nc(-c2ccccc2Cl)c2ccc(=O)n(-c3ccccc3Cl)c2n1 | < 10
Cc1cc(F)ccc1-c1nc(NCCc2nnn[nH]2)nc2c1ccc(=O)n2-c1c(F)cccc1F | < 10
Cc1cc(F)ccc1-c1nc(NCCc2c[nH]cn2)nc2c1ccc(=O)n2-c1c(F)cccc1F | < 10
CCC(CC)n1c(=O)ccc2c(-c3ccccc3Cl)nc(N[C@H](C)CO)nc21 | < 10
NCCNc1nc(-c2ccccc2Cl)c2ccc(=O)n(-c3ccccc3Cl)c2n1 | < 10
Cc1cc(F)ccc1-c1nc(NCC(=O)N2CCNC(=O)C2)nc2c1ccc(=O)n2-c1c(F)cccc1F | < 10
O=c1ccc2c(-c3ccccc3F)nc(NC(CO)CO)nc2n1-c1c(F)cccc1F | < 10
Cc1cc(F)ccc1-c1nc(N(C)S(C)(=O)=O)nc2c1ccc(=O)n2C(C)C | < 10
CC(C)n1c(=O)ccc2c(-c3ccccc3F)nc(NC(CO)CO)nc21 | < 10
CCN(CC)CCNc1nc(-c2ccccc2)c2ccc(=O)n(-c3ccccc3)c2n1 | < 10
Cc1cc(F)ccc1-c1nc(OCCNC(=O)OC(C)(C)C)nc2c1ccc(=O)n2-c1c(F)cccc1F | < 10
Cc1cc(F)ccc1-c1nc(NC(CO)CO)nc2c1ccc(=O)n2C(C)C | < 10

Further lines, results first:

IC50 [µM] | SMILES
< 10 | CSc1nc(-c2ccc(F)cc2C)c2ccc(=O)n(-c3ccccc3C)c2n1
< 10 | Cc1cc(F)ccc1-c1nc(NCC(C)(C)O)nc2c1ccc(=O)n2-c1ccccc1C
< 10 | CSc1nc(-c2ccc(F)cc2C)c2ccc(=O)n(-c3c(C)cccc3C)c2n1
< 10 | Cc1cc(F)ccc1-c1nc(NCCO)nc2c1ccc(=O)n2-c1ccccc1F
< 10 | Cc1cc(F)ccc1-c1nc(NCC(F)(F)F)nc2c1ccc(=O)n2-c1ccccc1C
< 10 | Cc1cc(F)ccc1-c1nc(NC(CO)CO)nc2c1ccc(=O)n2-c1ccccc1C
< 10 | Cc1cc(F)ccc1-c1nc(NCC(=O)NC2CC2)nc2c1ccc(=O)n2-c1c(F)cccc1F
< 10 | COCCNc1nc(-c2ccc(F)cc2C)c2ccc(=O)n(-c3c(F)cccc3F)c2n1
< 10 | Cc1cc(F)ccc1-c1nc(NCC2CCS(=O)(=O)C2)nc2c1ccc(=O)n2-c1c(F)cccc1F (stereo not given)
< 10 | Cc1cc(F)ccc1-c1nc(NCC(N)=O)nc2c1ccc(=O)n2-c1c(F)cccc1F
< 10 | Cc1cc(F)ccc1-c1nc(NC(CO)CO)nc2c1ccc(=O)n2-c1ccccc1F
< 10 | CSc1nc(-c2ccc(F)cc2C)c2ccc(=O)n(-c3c(F)cccc3F)c2n1
< 10 | Cc1cc(F)ccc1-c1nc(NCC2CCCO2)nc2c1ccc(=O)n2-c1c(F)cccc1F (stereo not given)
< 10 | CCOc1nc(-c2ccc(F)cc2C)c2ccc(=O)n(-c3c(F)cccc3F)c2n1
< 10 | Cc1cc(F)ccc1-c1nc(NC2CCOCC2)nc2c1ccc(=O)n2-c1ccccc1F
< 10 | Cc1cc(F)ccc1-c1nc(N[C@@H]2CS(=O)(=O)C[C@H]2O)nc2c1ccc(=O)n2-c1c(F)cccc1F
< 10 | Cc1cc(F)ccc1-c1nc(NC2CCOCC2)nc2c1ccc(=O)n2-c1ccccc1C

IC50 [µM] | SMILES
< 10 | Cc1cc(F)ccc1-c1nc(NC2CCN(C)CC2)nc2c1ccc(=O)n2-c1c(F)cccc1F
< 10 | COc1nc(-c2ccc(F)cc2C)c2ccc(=O)n(-c3c(F)cccc3F)c2n1
< 10 | Cc1cc(F)ccc1-c1nc(NC(CO)CO)nc2c1ccc(=O)n2-c1c(C)cccc1C
< 10 | Cc1cc(F)ccc1-c1nc(NC2CCCCC2)nc2c1ccc(=O)n2-c1c(F)cccc1F
< 10 | Cc1cc(F)ccc1-c1nc(NC2CCCCC2)nc2c1ccc(=O)n2-c1ccccc1C
< 10 | Cc1cc(F)ccc1-c1nc(NC(=O)C2CC2)nc2c1ccc(=O)n2-c1c(F)cccc1F
< 10 | Cc1cc(F)ccc1-c1nc(NCC(F)(F)F)nc2c1ccc(=O)n2-c1ccccc1F
< 10 | Cc1cc(F)ccc1-c1nc(O)nc2c1ccc(=O)n2-c1c(F)cccc1F
< 10 | Cc1cc(F)ccc1-c1nc(NC(C)(C)CO)nc2c1ccc(=O)n2-c1ccccc1F
< 10 | Cc1cc(F)ccc1-c1nc(N[C@H]2CC[C@H](O)CC2)nc2c1ccc(=O)n2-c1c(F)cccc1F
< 10 | O=c1ccc2c(-c3ccccc3Cl)nc(NC3CCNCC3)nc2n1-c1ccccc1Cl
< 10 | CSCCCNc1nc(-c2ccc(F)cc2C)c2ccc(=O)n(-c3c(F)cccc3F)c2n1
< 10 | Cc1cc(F)ccc1-c1nc(O)nc2c1ccc(=O)n2-c1ccccc1F
< 10 | Cc1cc(F)ccc1-c1nc(NCC(=O)N(C)C)nc2c1ccc(=O)n2-c1c(F)cccc1F
< 10 | Cc1cc(CNc2nc(-c3ccc(F)cc3C)c3ccc(=O)n(-c4c(F)cccc4F)c3n2)on1
< 10 | Cc1cc(F)ccc1-c1nc(NC[C@@H](C)O)nc2c1ccc(=O)n2-c1c(F)cccc1F
